Measured values from US9617602B2, “Methods and compositions for determining resistance to androgen receptor therapy” (Aragon Pharmaceuticals, Inc., priority 2012, dated 2017).

Columns and labels:
Format in all cases: cell-based, human
[1] = system: LNCaP cells; test: Endogenous gene transcriptional assay (real-time PCR of androgen responsive genes); conditions: 1 nM R1881 or 30 μM compound, vehicle=1.00
Description: (§1) Total RNA was isolated using the Aurum™ total RNA isolation kit (BIO-RAD, Hercules, Calif.). RNA (1 μg) was reverse transcribed using the iScript cDNA synthesis kit (BIO-RAD, Hercules, Calif.) to produce cDNA. Real-time PCR was performed using the Applied Biosystems 7900HT instrument and SYBR Green PCR Master Mix (Applied Biosystems, Foster City, Calif.). PCR reactions were performed in 6 μL according to the manufacturer's protocol and a thermocycle protocol of 95° C. for 10 minutes followed by 40 cycles of 95° C. for 15 seconds and 58° C. for 1 minute. Androgen responsive gene (PSA, SLUG, TMPRSS2, STEAP4, FKBP5, ORM1, NOV, FASN, NKX3.1, AMIGO2, BDNF, CAMK2N1, HPGD, NCAPD3, PLD1) expression was normalized to GAPDH expression and expressed relative to vehicle treatment of the parental cell line.
(§2) Gene expression was normalized to GAPDH as described above.

[2] = system: LNCaP/AR(cs) cells; test: as above
Description: as §1, §2

[3] = system: Class 2 resistant cell lines; test: Transcriptional reporter assay (probasin-luciferase); conditions: Class 2
Description: (§3) With the exception of the LNCaP/AR(cs)-Luc cells that contain an integrated androgen responsive reporter, cells were transiently transfected using Lipofectin® (Life Technologies) according to the manufacturer's protocol. […] Following transfection, the cells were incubated for 4 hours.
(§4) Following 48 hour incubation the medium was removed and the cells were lysed in 40 μL of lysis buffer (25 mM Tris Phosphate, 2 mM CDTA, 10% Glycerol, 0.5% Triton X-100, 2 mM DTT).

[4] = system: Class 1 ARN-509- and MDV3100-resistant cell lines; test: Proliferation assay (CellTiter-Glo), agonist and antagonist mode; conditions: for Agonist Proliferation Assay (% Viability): Class 1, 7 days; for viability at 0.0001 µM: Homo sapiens, 168 h, read-out: Antagonist Proliferation Assay (% Viability)
[5] = system: LNCaP ARN-509r1 cells; test: Endogenous gene transcriptional assay (real-time PCR of androgen responsive genes); conditions: 1 nM R1881 or 30 μM compound, vehicle=1.00
Description: as §1, §2

[6] = system: Class 1 resistant cell lines; test: Transcriptional reporter assay (probasin-luciferase); conditions: Class 1
Description: as §3, §4

[7] = system: Class 2 MDV3100- and ARN-509-resistant cell lines; test: Proliferation assay (CellTiter-Glo), agonist and antagonist mode; conditions: for Agonist Proliferation Assay (% Viability): Class 2, 7 days; for viability at 0.0001 µM: Homo sapiens, 168 h, read-out: Antagonist Proliferation Assay (% Viability)
[8] = system: AR in LNCaP/AR(cs) cells; test: AR chromatin immunoprecipitation (ChIP) of AR target genes; conditions: 1 nM R1881, 4 hours
Description: The samples were amplified on the ABI 7900HT instrument.

[9] = system: LNCaP cells; test: Transcriptional reporter assay (probasin-luciferase)
Description: as §3, §4

[10] = system: LNCaP/AR-Luc cells; test: Endogenous gene transcriptional assay (real-time PCR of androgen responsive genes); conditions: 1 nM R1881 or 30 μM compound, vehicle=1.00
Description: as §1, §2

[11] = system: LNCaP cells; test: Proliferation assay (CellTiter-Glo), agonist and antagonist mode; conditions: for viability at 0.0001 µM: Homo sapiens, 168 h, read-out: Antagonist Proliferation Assay (% Viability); for Agonist Proliferation Assay (% Viability): 7 days
[12] = system: LNCaP ARN-509r2 cells; test: Endogenous gene transcriptional assay (real-time PCR of androgen responsive genes); conditions: 1 nM R1881 or 30 μM compound, vehicle=1.00
Description: as §1, §2

[13] = system: LNCaP/AR(cs) cells; test: Transcriptional reporter assay (probasin-luciferase)
Description: as §3, §4

[14] = system: LNCaP/AR(cs) cells; test: Proliferation assay (CellTiter-Glo), agonist and antagonist mode; conditions: for viability at 0.0001 µM: Homo sapiens, LNCaP/AR, 168 h, read-out: Antagonist Proliferation Assay (% Viability); for Agonist Proliferation Assay (% Viability): LNCaP/AR(cs), 7 days
[15] = Table 4A, 1 nM R1881 or 30 μM compound, vehicle=1.00
[16] = Tables 9A/9B, 1 nM R1881, vehicle=1.00
[17] = [Antagonists] = 50 μM in presence of R1881

C[C@]1(O)CC[C@H]2[C@@H]3CCC4=CC(=O)CCC4=C3C=C[C@@]21C [R1881, methyltrienolone]
AMIGO2 gene expression [1]: 0.68 | BDNF gene expression [1]: 0.40 | CAM2KN1 gene expression [1]: 0.13 | FASN gene expression [1]: 5.58 | FKBP5 gene expression [1]: 54.95 | HPGD gene expression [1]: 100.43 | NCAPD3 gene expression [1]: 104.69 | NKX3.1 gene expression [1]: 30.06 | NOV gene expression [1]: 0.15 | ORM1 gene expression [1]: 873.10 | PLD1 gene expression [1]: 0.02 | PSA gene expression [1]: 47.84 | SLUG gene expression [1]: 129.79 | STEAP4 gene expression [1]: 639.15 | TMPRSS2 gene expression [1]: 22.16 | AMIGO2 gene expression [2, 15]: 0.54 | BDNF gene expression [2, 15]: 0.48 | CAM2KN1 gene expression [2, 15]: 0.05 | FASN gene expression [2, 15]: 7.11 | FKBP5 gene expression [2, 15]: 97.01 | HPGD gene expression [2, 15]: 183.55 | NCAPD3 gene expression [2, 15]: 93.05 | NKX3.1 gene expression [2, 15]: 8.82 | NOV gene expression [2, 15]: 0.04 | ORM1 gene expression [2, 15]: 3444.31 | PLD1 gene expression [2, 15]: 0.02 | PSA gene expression [2, 15]: 19.16 | SLUG gene expression [2, 15]: 89.88 | STEAP4 gene expression [2, 15]: 1314.23 | TMPRSS2 gene expression [2, 15]: 17.51 | AMIGO2 gene expression [2, 16]: 0.98 | BDNF gene expression [2, 16]: 0.86 | CAM2KN1 gene expression [2, 16]: 0.04 | FASN gene expression [2, 16]: 4.12 | FKBP5 gene expression [2, 16]: 100.51 | HPGD gene expression [2, 16]: 324.60 | NCAPD3 gene expression [2, 16]: 95.54 | NKX3.1 gene expression [2, 16]: 12.72 | NOV gene expression [2, 16]: 0.05 | ORM1 gene expression [2, 16]: 6987.01 | PLD1 gene expression [2, 16]: 0.03 | PSA gene expression [2, 16]: 22.14 | SLUG gene expression [2, 16]: 91.84 | STEAP4 gene expression [2, 16]: 1498.46 | TMPRSS2 gene expression [2, 16]: 35.42 | Agonist Transcriptional Reporter Assay (% Max Activity) ([3]; [R1881] = 10 nM): >90% | Antagonist Transcriptional Reporter Assay (% Max Activity) ([3]; [R1881] = 10 nM): >90% | Agonist Proliferation Assay (% Viability) ([4]; [R1881] = 0.1 nM): 100.0% | viability at 0.0001 µM [4]: 100% | Effect of R1881 on proliferation of Class 1 cells ([4]; high concentrations): inhibits proliferation | AMIGO2 gene expression [5]: 0.21 | BDNF gene expression [5]: 0.31 | CAM2KN1 gene expression [5]: 0.01 | FASN gene expression [5]: 3.12 | FKBP5 gene expression [5]: 53.45 | HPGD gene expression [5]: 61.39 | NCAPD3 gene expression [5]: 90.51 | NKX3.1 gene expression [5]: 8.11 | NOV gene expression [5]: 0.03 | ORM1 gene expression [5]: 1296.13 | PLD1 gene expression [5]: 0.03 | PSA gene expression [5]: 85.63 | SLUG gene expression [5]: 164.28 | STEAP4 gene expression [5]: 1184.45 | TMPRSS2 gene expression [5]: 37.27 | Agonist Transcriptional Reporter Assay (% Max Activity) ([6]; [R1881] = 10 nM): >90% | Antagonist Transcriptional Reporter Assay (% Max Activity) ([6]; [R1881] = 10 nM): >90% | Agonist Proliferation Assay (% Viability) ([7]; [R1881] = 0.1 nM): 100.0% | viability at 0.0001 µM [7]: 100% | AR DNA binding (ChIP), LNCaP/AR(cs) cells [8]: promoted AR DNA | Agonist Transcriptional Reporter Assay (% Max Activity) ([9]; [R1881] = 10 nM): >90% | Antagonist Transcriptional Reporter Assay (% Max Activity) ([9]; [R1881] = 10 nM): >90% | AMIGO2 gene expression [10]: 0.54 | BDNF gene expression [10]: 0.18 | CAM2KN1 gene expression [10]: 0.11 | FASN gene expression [10]: 3.48 | FKBP5 gene expression [10]: 20.82 | HPGD gene expression [10]: 2.41 | NCAPD3 gene expression [10]: 17.27 | NKX3.1 gene expression [10]: 11.24 | NOV gene expression [10]: 0.47 | ORM1 gene expression [10]: 7.89 | PLD1 gene expression [10]: 0.15 | PSA gene expression [10]: 2.10 | SLUG gene expression [10]: 48.84 | STEAP4 gene expression [10]: 20.25 | TMPRSS2 gene expression [10]: 3.46 | viability at 0.0001 µM [11]: 100% | Agonist Proliferation Assay (% Viability) ([11]; [R1881] = 0.1 nM): 100.0% | AMIGO2 gene expression [12]: 0.55 | BDNF gene expression [12]: 0.47 | CAM2KN1 gene expression [12]: 0.02 | FASN gene expression [12]: 4.82 | FKBP5 gene expression [12]: 48.50 | HPGD gene expression [12]: 59.30 | NCAPD3 gene expression [12]: 54.95 | NKX3.1 gene expression [12]: 10.20 | NOV gene expression [12]: 0.07 | ORM1 gene expression [12]: 625.99 | PLD1 gene expression [12]: 0.02 | PSA gene expression [12]: 7.89 | SLUG gene expression [12]: 77.17 | STEAP4 gene expression [12]: 377.41 | TMPRSS2 gene expression [12]: 15.14 | Agonist Transcriptional Reporter Assay (% Max Activity) ([13]; [R1881] = 10 nM): >90% | Antagonist Transcriptional Reporter Assay (% Max Activity) ([13]; [R1881] = 10 nM): >90% | viability at 0.0001 µM [14]: 100% | Agonist Proliferation Assay (% Viability) ([14]; [R1881] = 0.1 nM): 100.0%

CC(O)(CS(=O)(=O)c1ccc(F)cc1)C(=O)Nc1ccc(C#N)c(C(F)(F)F)c1 (stereo not shown) [Bicalutamide, bicalutamide]
Agonist Transcriptional Reporter Assay (% Max Activity) ([3]; [Antagonists] = 50 μM): + (‘+’ = <5) | Antagonist Transcriptional Reporter Assay (% Max Activity) [3, 17]: + (‘+’ = <5) | Agonist Proliferation Assay (% Viability) ([4]; [Antagonists] = 10 μM): ++ (‘++’ = >30) | viability at 0.0001 µM [4]: > 30% | Agonist Transcriptional Reporter Assay (% Max Activity) ([6]; [Antagonists] = 50 μM): ++ (‘++’ = >5) | Antagonist Transcriptional Reporter Assay (% Max Activity) [6, 17]: ++ (‘++’ = >5) | Agonist Proliferation Assay (% Viability) ([7]; [Antagonists] = 10 μM): + (‘+’ = <30) | viability at 0.0001 µM [7]: > 30% | Agonist Transcriptional Reporter Assay (% Max Activity) ([9]; [Antagonists] = 50 μM): + (‘+’ = <5) | Antagonist Transcriptional Reporter Assay (% Max Activity) [9, 17]: + (‘+’ = <5) | viability at 0.0001 µM [11]: < 30% | Agonist Proliferation Assay (% Viability) ([11]; [Antagonists] = 10 μM): + (‘+’ = <30) | Agonist Transcriptional Reporter Assay (% Max Activity) ([13]; [Antagonists] = 50 μM): + (‘+’ = <5) | Antagonist Transcriptional Reporter Assay (% Max Activity) [13, 17]: + (‘+’ = <5) | viability at 0.0001 µM [14]: < 30% | Agonist Proliferation Assay (% Viability) ([14]; [Antagonists] = 10 μM): + (‘+’ = <30)
